In patent US20060030603A1, “Novel aryl urea analogs and use thereof as antibacterial agents” (priority 2004, published 2006):
≈ marks a conversion by molar mass, not a printed value. Read-outs that look alike come from different tables or passages of the source.

Assays:
P. aeruginosa ATCC 25416 = assay: MIC assay, P. aeruginosa; assay type: cell-based
Procedure: (§1) In vitro structure/activity relationship (“SAR”) tests were performed according to the following procedure: MIC assays were carried out in a 150 μL volume in duplicate in 96-well clear flat-bottom plates. The bacterial suspension from an overnight culture growth in the appropriate medium was added to a solution of test compound in 0.5% DMSO in water. Final bacterial inoculum was approximate 10^3-10^4 CFU/well. The percentage growth of the bacteria in the test wells relative to that observed for a control well containing no compound was determined by measuring absorbance at 595 nm (A595) after 20-24 h at 37° C. […] The bacterial strains used for the assays include S. aureus ATCC 13709, S. pyogenes ATCC 49399, E. faecalis ATCC 29212, E. faecium ATCC 6569, E. coli ATCC 25922, K. pneumoniae ATCC 13383, P. vulgaris ATCC 8427, P. aeruginosa ATCC 25416. The results of the in vitro SAR tests are in Tables 1-3.

S. aureus ATCC 13709 = assay: MIC assay, S. aureus; assay type: cell-based; details: Staphylococcus aureus
Procedure: as §1

log P = assay type: physicochemical
E. coli ATCC 25922 = assay: MIC assay, E. coli; assay type: cell-based
Procedure: as §1

E. faecalis ATCC 29212 = assay: MIC assay, E. faecalis; assay type: cell-based
Procedure: as §1

E. faecium ATCC 6569 = assay: MIC assay, E. faecium; assay type: cell-based
Procedure: as §1

P. vulgaris ATCC 8427 = assay: MIC assay, P. vulgaris; assay type: cell-based
Procedure: as §1

K. pneumoniae ATCC 13383 = assay: MIC assay, K. pneumoniae; assay type: cell-based
Procedure: as §1

S. pyogenes ATCC 49399 = assay: MIC assay, S. pyogenes; assay type: cell-based
Procedure: as §1

[1] = Acute Toxicity Study (maximum tolerated dose); assay type: in vivo; details: observed seven days; for toxic dose via the IP route: intraperitoneal, 150 down to 19 mg/kg tested; for survival in the subQ group: subcutaneous, 150 down to 19 mg/kg, compound appeared to precipitate at injection site
Procedure: Acute Toxicity Study: The maximum tolerated dose for either compound 12e or 14b was determined by administering the compound from 150 mg/kg down to 19 mg/kg given either intraperitoneally (IP) or subcutaneously (subQ). […] On autopsy some of the compound appeared to precipitate at the injection site thereby reducing the effective dose. Via the IP route compound 12e was toxic down to 37 mg/kg and compound 14b was only toxic at 150 mg/kg.

[2] = MIT HUH-7 CC50 48h cytotoxicity; assay type: cell-based; details: human, HUH-7 cells; HUH-7, 48h
S. aureus (ATCC 13709) = assay: Mouse Protection Assay (lethal murine model of bacterial infection); assay type: in vivo, ICR-CD-1 female mice; details: 14b HCl salt
Procedure: The in vivo tests were preformed according to the following procedure:
Mouse Protection Assay: 10 mice/dose group (ICR-CD-1 female mice 18-20 grams, Charles River) were infected with a lethal dose (10^6 CFU/mouse) of S. aureus (ATCC 13709) suspended in 7.5% hog Gastric Mucin IP. The infected animals were treated at 1 h and 3 h post infection with either compound 12e (lactate salt) from 37 mg/kg down to 2.3 mg/kg or compound 14b (HCl salt) from 75 mg/kg down to 2.3 mg/kg (0.1 mL/mouse). The positive control drug was Vancomycin (Eli Lilly) 1 mg/kg.

[3] = Pseudomonas aeruginosa, ATCC25416; read-out: MIC P. aeruginosa ATCC 25416
[4] = ATCC13709, Table 2, benzylamino group modified analogs, read-out: MIC S. aureus
[5] = ATCC13709, Table 4, read-out: MIC S. aureus ATCC 13709
[6] = Escherichia coli, ATCC25922; read-out: MIC E. coli ATCC 25922
[7] = Enterococcus faecalis, ATCC29212; read-out: MIC E. faecalis ATCC 29212
[8] = Enterococcus faecium, ATCC6569; read-out: MIC E. faecium ATCC 6569
[9] = Proteus vulgaris, ATCC8427; read-out: MIC P. vulgaris ATCC 8427
[10] = 2.3 × 2 mg/Kg, 1 h and 3 h post infection, one week, 12e lactate salt
[11] = 4.7 × 2 mg/Kg, 1 h and 3 h post infection, one week, 12e lactate salt
[12] = 9.4 × 2 mg/Kg, 1 h and 3 h post infection, one week, 12e lactate salt
[13] = 18.8 × 2 mg/Kg, 1 h and 3 h post infection, one week, 12e lactate salt
[14] = 37.5 × 2 mg/Kg, 1 h and 3 h post infection, one week, 12e lactate salt
[15] = Klebsiella pneumoniae, ATCC13383; read-out: MIC K. pneumoniae ATCC 13383
[16] = Streptococcus pyogenes, ATCC49399; read-out: MIC S. pyogenes ATCC 49399

Row | Structure (SMILES) | logP (log P) | MIC (P. aeruginosa ATCC 25416; [3]) [µM] | MIC (S. aureus ATCC 13709; [4]) [µM] | MIC (S. aureus ATCC 13709; [5]) [µM] | toxic dose via the IP route [1] [mg/kg] | survival in the subQ group [1] | MIC (E. coli ATCC 25922; [6]) [µM] | MIC (E. faecalis ATCC 29212; [7]) [µM] | MIC (E. faecium ATCC 6569; [8]) [µM] | CC50 at 48 h [2] [µM] | MIC (P. vulgaris ATCC 8427; [9]) [µM] | Mice Alive/Total (S. aureus (ATCC 13709); [10]) | Mice Alive/Total (S. aureus (ATCC 13709); [11]) | Mice Alive/Total (S. aureus (ATCC 13709); [12]) | Mice Alive/Total (S. aureus (ATCC 13709); [13]) | Mice Alive/Total (S. aureus (ATCC 13709); [14]) | MIC (K. pneumoniae ATCC 13383; [15]) [µM] | MIC (S. pyogenes ATCC 49399; [16]) [µM] | also measured
1 | O=C(NCCCNCc1cc(Br)cc(Br)c1)Nc1ccc(Cl)c(Cl)c1 [9f, 1-[3-(3,5-Dibromo-benzylamino)-propyl]-3-(3,4-dichloro-phenyl)-urea] | 4.89 | – | – | – | – | – | – | – | – | – | – | – | – | – | – | – | – | – | MIC (P. aeruginosa ATCC 25416; Pseudomonas aeruginosa, ATCC25416, read-out: MIC P. aeruginosa ATCC 25416): > 100 µM; MIC (S. aureus ATCC 13709; ATCC13709, read-out: MIC S. aureus): 3 to 6 µM (≈ 1.53 to 3.06 µg/mL); MIC (S. aureus ATCC 13709; ATCC13709, read-out: MIC S. aureus ATCC 13709): 3 to 6 µM (≈ 1.53 to 3.06 µg/mL); MIC (E. coli ATCC 25922; Escherichia coli, ATCC25922, read-out: MIC E. coli ATCC 25922): 12 to 25 µM (≈ 6.12 to 12.8 µg/mL); MIC (E. faecalis ATCC 29212; Enterococcus faecalis, ATCC29212, read-out: MIC E. faecalis ATCC 29212): 6 to 12 µM (≈ 3.06 to 6.12 µg/mL); MIC (E. faecium ATCC 6569; Enterococcus faecium, ATCC6569, read-out: MIC E. faecium ATCC 6569): > 100 µM; MIC (P. vulgaris ATCC 8427; Proteus vulgaris, ATCC8427, read-out: MIC P. vulgaris ATCC 8427): 12 to 25 µM (≈ 6.12 to 12.8 µg/mL); MIC (K. pneumoniae ATCC 13383; Klebsiella pneumoniae, ATCC13383, read-out: MIC K. pneumoniae ATCC 13383): 6 to 12 µM (≈ 3.06 to 6.12 µg/mL); MIC (S. pyogenes ATCC 49399; Streptococcus pyogenes, ATCC49399, read-out: MIC S. pyogenes ATCC 49399): 6 to 12 µM (≈ 3.06 to 6.12 µg/mL)
2 | O=C(NCCCNCc1ccc(-c2ccccc2)cc1)Nc1ccc(C(F)(F)F)cc1 [12e, 1-{3-[(Biphenyl-4-ylmethyl)-amino]-propyl}-3-(4-trifluoromethyl-phenyl)-urea] | 4.91 | > 100 | 3 to 6 (≈ 1.28 to 2.56 µg/mL) | 3 to 6 (≈ 1.28 to 2.56 µg/mL) | ≥ 37 | all animals survived at all doses tested | 6 to 12 (≈ 2.56 to 5.13 µg/mL) | > 100 | > 100 | 25 to 50 | 12 to 25 (≈ 5.13 to 10.7 µg/mL) | 0/10 | 2/10 | 4/10 | 3/10 | 3/10 | 6 to 12 (≈ 2.56 to 5.13 µg/mL) | 3 to 6 (≈ 1.28 to 2.56 µg/mL) | –
3 | O=C(NCCCNCc1ccc(Oc2ccccc2)cc1)Nc1ccc(C(F)(F)F)cc1 [12h, 1-[3-(4-Phenoxy-benzylamino)-propyl]-3-(4-trifluoromethyl-phenyl)-urea] | 4.77 | > 100 | 3 to 6 (≈ 1.33 to 2.66 µg/mL) | 3 to 6 (≈ 1.33 to 2.66 µg/mL) | – | – | 6 to 12 (≈ 2.66 to 5.32 µg/mL) | 3 to 6 (≈ 1.33 to 2.66 µg/mL) | > 100 | 12.5 to 25 | 12 to 25 (≈ 5.32 to 11.1 µg/mL) | – | – | – | – | – | 6 to 12 (≈ 2.66 to 5.32 µg/mL) | 3 to 6 (≈ 1.33 to 2.66 µg/mL) | –
4 | CC(C)(C)c1ccc(CNCCCNC(=O)Nc2ccc(C(F)(F)F)cc2)cc1 [12i, 1-[3-(4-tert-Butyl-benzylamino)-propyl]-3-(4-trifluoromethyl-phenyl)-urea] | 4.94 | > 100 | 3 to 6 (≈ 1.22 to 2.44 µg/mL) | 3 to 6 (≈ 1.22 to 2.44 µg/mL) | – | – | 6 to 12 (≈ 2.44 to 4.89 µg/mL) | 6 to 12 (≈ 2.44 to 4.89 µg/mL) | 3 to 6 (≈ 1.22 to 2.44 µg/mL) | – | 12 to 25 (≈ 4.89 to 10.2 µg/mL) | – | – | – | – | – | 3 to 6 (≈ 1.22 to 2.44 µg/mL) | 3 to 6 (≈ 1.22 to 2.44 µg/mL) | –
5 | CCOc1c(Br)cc(Br)cc1CNCCCNC(=O)Nc1ccc(C(F)(F)F)cc1 [12s, 1-[3-(3,5-Dibromo-2-ethoxy-benzylamino)-propyl]-3-(4-trifluoromethyl-phenyl)-urea] | 5.1 | > 100 | 3 to 6 (≈ 1.66 to 3.32 µg/mL) | 3 to 6 (≈ 1.66 to 3.32 µg/mL) | – | – | 12 to 25 (≈ 6.64 to 13.8 µg/mL) | 6 to 12 (≈ 3.32 to 6.64 µg/mL) | 6 to 12 (≈ 3.32 to 6.64 µg/mL) | 50 to 100 | 12 to 25 (≈ 6.64 to 13.8 µg/mL) | – | – | – | – | – | 3 to 6 (≈ 1.66 to 3.32 µg/mL) | 3 to 6 (≈ 1.66 to 3.32 µg/mL) | –
6 | CN(CCCNC(=O)Nc1ccc(C(F)(F)F)cc1)CCCOc1ccc(Br)cc1Br [14b, 1-(3-{[3-(2,4-Dibromo-phenoxy)-propyl]-methyl-amino}-propyl)-3-(4-trifluoromethyl-phenyl)-urea] | 5.3 | > 100 | 3 to 6 (≈ 1.7 to 3.4 µg/mL) | 3 to 6 (≈ 1.7 to 3.4 µg/mL) | 150 | all animals survived at all doses tested | 12 to 25 (≈ 6.81 to 14.2 µg/mL) | 3 to 6 (≈ 1.7 to 3.4 µg/mL) | > 100 | > 100 | 12 to 25 (≈ 6.81 to 14.2 µg/mL) | 3/10 | 4/10 | 6/10 | 6/10 | 7/10 | 3 to 6 (≈ 1.7 to 3.4 µg/mL) | 3 to 6 (≈ 1.7 to 3.4 µg/mL) | Mice Alive/Total (S. aureus (ATCC 13709); 75 × 2 mg/Kg, treated 1 h and 3 h post infection, observed one week): 4/10
